Measurements taken from patent publication US5041441A, “Method of chemotherapy using 1-phenyl-2-decanoylamino-3-morpholino-1-propanol” (The Regents of the University of Michigan, priority 1988, dated 1991).

Tests used:
Ehrlich ascites cells = test: Growth of Ehrlich ascites cells in vivo (volume of packed cells); conditions: treatment begun 3 days after EATC inoculation, 5 injections, killed 1 day later; 100 mg/kg
Procedure: A suspension of GlcCer was injected into one group of 10 mice inoculated 1 day earlier with EATC as before. Injectable suspensions of GlcCer and galactosylceramide (GalCer) were prepared by mechanical grinding in saline (10 mg/ml) and injected at a dosage of 100 mg/kg. In one experiment, the mice were killed 1 day after the last of eight daily injections and the ascites cells were flushed out of the abdomen with buffered saline and washed.
Treatments were begun 3 days after EATC inoculation. Only 5 injections were given and the mice were killed 1 day later.

[1] = Toxicity test in normal, noncancerous mice; type: in vivo
Procedure: Ten normal, noncancerous mice were injected with D-threo-PDMP daily for 10 days, then killed 5 hours later with the results set forth in Table 4.
The preceding experiment was repeated in order to observe less evancescent responses: the mice were killed 40 hours after the last injection following 12 daily injections. Here, of the absolute weights, only the kidneys were statistically different in treated mice, 11% smaller (p less than 0.05%). Comparing the 40 hour and 5 hour experiments it seems likely that the liver weights renormalized faster than the kidneys, perhaps a reflection of faster glucolipid turnover.
This failure to harm the bone marrow and related systems compares favorably with the high toxicity of many antineoplastics.

[2] = target: T1, glucosyltransferase (EATC enzyme) (Mus musculus, UniProt O88693); test: Glucosyltransferase assay, microsomes from EATC; type: biochemical
T1 construct: Microsomes from EATC (0.50 mg protein) required 20 μM PDMP to reduce the glucosyltransferase activity in half; endogenous in cells; host or cells: Ehrlich ascites tumor cells (EATC), microsomes
T1 sequence (O88693 1-394): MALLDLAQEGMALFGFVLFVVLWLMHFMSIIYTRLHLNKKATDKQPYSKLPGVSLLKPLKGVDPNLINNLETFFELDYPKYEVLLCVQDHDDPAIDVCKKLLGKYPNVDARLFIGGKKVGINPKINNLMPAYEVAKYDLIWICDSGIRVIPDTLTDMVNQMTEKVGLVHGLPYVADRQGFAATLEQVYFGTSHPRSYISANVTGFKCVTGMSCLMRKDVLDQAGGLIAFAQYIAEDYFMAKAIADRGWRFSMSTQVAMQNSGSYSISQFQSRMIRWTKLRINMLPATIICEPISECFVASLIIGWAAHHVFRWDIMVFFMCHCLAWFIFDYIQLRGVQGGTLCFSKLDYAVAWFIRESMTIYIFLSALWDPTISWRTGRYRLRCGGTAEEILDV
Procedure: (§1) Evidence that D-threo-PDMP acts to inhibit GlcCer biosynthesis was provided as follows from assay of glucosyltransferase. Microsomes as source of enzyme were prepared by highspeed centrifugation and stored at -70° C. before use. The incubations were at 37° C. for 30 minutes with microsomes, ATP, liposomal octanoyl sphingosine, UDP-[^3 H]glu, Mg^2+, and dithioerythritol. Microsomes from EATC (0.50 mg protein) required 20 μM PDMP to reduce the glucosyltransferase activity in half. The microsomes from normal liver (72 μg protein) required 5 μM D-threo-PDMP. While the EATC enzyme seems to be less sensitive to the inhibitor, the intraperitoneal concentration of inhibitor is initially very high.

[3] = target: T2, glucosyltransferase (microsomes from normal liver) (Mus musculus, UniProt O88693); test: Glucosyltransferase assay, microsomes from normal liver; type: biochemical
T2 construct: The microsomes from normal liver (72 μg protein) required 5 μM D-threo-PDMP; from tissue; host or cells: normal liver microsomes, ICR Swiss mice
T2 sequence (O88693 1-394): T1 sequence (O88693 1-394)
Procedure: as §1
Our tentative conclusion is that these cells obtain much of their GlcCer from the peritoneum. Thus, the effectiveness of the drug can tentatively be ascribed to a blockage of GlcCer synthesis by both the host and tumor cells.

EATC = test: Rechallenge of surviving treated mice with EATC; type: in vivo
From the text: Four mice who had survived 63 days post-inoculation were challenged with another 2×10^6 EATC. […] Normal mice of this age, like the younger ones, are readily attacked by EATC. We conclude that the mice have, in effect, been "live-cell vaccinated" with EATC plus PDMP.

[4] = test system: Ehrlich ascites tumor cells (EATC); test: Antitumor activity in mice inoculated i.p. with Ehrlich ascites tumor cells; type: in vivo; conditions: for Median T/C ratio / Number of cured mice at 60 days / Number of cured mice at 90 days / Surviving at 60 days (cured mice and mice bearing a solid tumor) / Surviving at 90 days (cured mice and mice bearing a solid tumor): acetate salt i.p.; for Surviving at 10 days / Body weight change (mean, end of 10 days): mouse, in vivo, ip
Procedure: Male mice of the ICR (Swiss Hsd) strain from Harlan--Sprague Dawley (Indianapolis, Ind.) were injected intraperitoneal with saline containing 2×10^6 Ehrlich ascites tumor cells (EATC) on day 0. […] Treatment began 24 hours later with intraperitoneal injections of saline or inhibitor, either as the acetate salt or as the hydrochloride salt. The inhibitor was dissolved in 40° C. saline and injected at 10 μl/g body weight. In the case of drugs that were difficult to dissolve, e.g. the hydrochlorides, a non-ionic, low toxicity detergent was included to emulsify the drug, making it suitable for injection. Two cages of mice were assigned to each control or experimental group and fed standard lab chow. In almost all cases, the mice were injected daily for a total of 10 doses.
The 1-tailed Student t-test for unpaired samples was used for statistical analysis.
The experimental procedure set forth above was again followed with homologs of PDMP made from fatty acids of 10 to 18 carbon atom length. The compounds were not resolved into D- and L-forms but the threo stereomers were used as the hydrochlorides. All samples were emulsified in Myrj 52 (15 mg/kg).

[5] = 100 mg/kg/day, 10 injections, killed 5 hours later
[6] = 2 × 250 mg/kg/day, days 1-5, 1 × 150, days 6-10

## CCCCCCCCCC(=O)N[C@H](CN1CCOCC1)[C@H](O)c1ccccc1 [D-threo-PDMP, 1-Phenyl-2-Decanoylamino-3-Morpholino-1-Propanol]
Ehrlich ascites cells
  Volume of packed cells: 1.68 ± 0.86 ml/mouse
  Volume of packed cells, % of controls: 62 % of controls
[1]; 100 mg/kg/day, 10 injections, controls gained 4.5 g
  Average body weight gain of treated mice: 2.1 g
[1]; [5]
  Body weight smaller than controls: 8%
  Brain Weight: 0.444 g
  Brain Weight (% of body): 1.67 % of body
  Kidney Weight: 0.329 g
  Kidney Weight (% of body): 1.24 % of body
  Kidney weight smaller than controls: 17%
  Liver Weight: 1.32 g
  Liver Weight (% of body): 4.97 % of body
  Liver weight smaller than controls: 18%
  Spleen Weight: 0.095 g
  Spleen Weight (% of body): 0.36 % of body
  Spleen size compared with controls: slightly but not significantly smaller
[1]; 100 mg/kg/day, 10 injections, killed 5 hours later, initial mean 24.4 g
  Body Weight: 26.5 g
[1]; 100 mg/kg/day, 10 injections, killed 5 hours later, p less than 0.025
  Brain weight smaller than controls: 4.6%
[1]; 12 daily injections
  Cell counts on orbital blood (RBC, WBC, differential monocytes, lymphocytes, eosinophiles, neutrophils): no abnormalities
[1]; 12 daily injections, killed 40 hours after the last injection
  Kidney weight (absolute) smaller than controls: 11%
[2]
  IC50: 20 µM
[3]
  IC50: 5 µM
EATC; five survivors challenged 135 and 100 days after inoculation, greater than 5 months of observation
  Survivors developing no EATC after challenge: four of them developed no EATC
EATC; four mice surviving 63 days post-inoculation, observed greater than 7 months more
  Effect of reinoculation with 2×10^6 EATC: no effects of the reinoculation
[4]; 1 × 100 mg/kg/day, days 1-10
  Median T/C ratio: 191%
  Number of cured mice at 60 days: 4
  Number of cured mice at 90 days: 4
  Surviving at 60 days (cured mice and mice bearing a solid tumor): 7
[4]; 1 × 100 mg/kg/day, days 1-10, mice with solid tumors killed before 90 days
  Surviving at 90 days (cured mice and mice bearing a solid tumor): 4
[4]; 1 × 150 mg/kg/day, days 1-10
  Median T/C ratio: 319%
  Number of cured mice at 60 days: 3
  Number of cured mice at 90 days: 3
  Surviving at 60 days (cured mice and mice bearing a solid tumor): 7
  Surviving at 90 days (cured mice and mice bearing a solid tumor): 5
[4]; 2 × 100 mg/kg/day, days 1-5
  Median T/C ratio: 238%
  Number of cured mice at 60 days: 3
  Number of cured mice at 90 days: 3
  Surviving at 60 days (cured mice and mice bearing a solid tumor): 5
[4]; 2 × 100 mg/kg/day, days 1-5, mice with solid tumors killed before 90 days
  Surviving at 90 days (cured mice and mice bearing a solid tumor): 3
[4]; [6]
  Median T/C ratio: 150%
  Number of cured mice at 60 days: 3
  Number of cured mice at 90 days: 3
  Surviving at 60 days (cured mice and mice bearing a solid tumor): 5
  Surviving at 90 days (cured mice and mice bearing a solid tumor): 5
[4]; dose response test, 75 mg/kg
  Percentage surviving for 60 days: 10%
[4]; dose response test, 100 mg/kg
  Percentage surviving for 60 days: 20%
[4]; dose response test, 125 mg/kg
  Percentage surviving for 60 days: 50%
[4]; dose response test, 25 or 50 mg/kg
  Time of death compared with controls: died at about the same time as the controls
[4]; dose response test, two most-heavily dosed groups
  Mice still alive and healthy more than 5 months after inoculation: 40%
[4]; 100 mg/kg/day
  Surviving at 10 days: 10/10
[4]; 150 mg/kg/day
  Body weight change (mean, end of 10 days): -0.36 g
  Surviving at 10 days: 10/10
[4]; 250 mg/kg/day
  Body weight change (mean, end of 10 days): -3.49 g
  Surviving at 10 days: 8/9
[4]; variety of regimens
  Mice completely cured: About 30%
